Laboratory results published in PubChem BioAssay AID977622 (Broad Institute, 2014).
Inconclusive results are not listed. The source made the active and inactive calls.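 How the source made its calls: active means Green signal of the normal strain falls at least twice as much as red signal of the resistant mutant, with overall culture growth loss under a set limit; inconclusive means no clear call, values can overlap the other calls; inactive means the rest.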

How the values were obtained:
[1] = tested on: E. coli h38 humanized mutant ribosome RFP fluorescence, mixed culture, 24 h; assay: wild-type E. coli growth inhibition versus h38 humanized strain – h38 mutant RFP, wild-type GFP, cherry-pick, dose response (AID 977622); settings: measured here: h38 humanized mutant RFP strain
[2] = tested on: E. coli WT ribosome GFP fluorescence, mixed culture, 24 h; assay: as above
[3] = E. coli mixed culture, 24 h, measured here: total growth OD600

| Compound | AC50 [1] [µM] | AC50 [2, 3] [µM] | AC50 [2] |
| --- | --- | --- | --- |
| O=C(Nc1ccc(C(=O)c2ccccc2)cc1)c1ccccc1 | > 100 |  |  |
| C=CCn1c(C)cc(C(=O)CSc2nnc(C3CC3)n2C2CC2)c1C | > 100 | > 100 |  |
| C[C@H]1CN([C@@H](C)CO)C(=O)c2c(c3ccccc3n2C)-c2ccccc2CO[C@@H]1CN(C)Cc1ccncc1 | > 100 |  |  |
| O=C(c1cccc2ccccc12)C1CCCN(C(=O)CCc2cnccn2)C1 (stereo not drawn) | > 100 | > 100 |  |
| COc1ccc(OC)c(S(=O)(=O)Nc2cccc3ccc(O)cc23)c1 | > 100 | > 100 | > 100 µM (inactive) |
| COc1ccc(OC)c(C(=O)COC(=O)c2ccc([N+](=O)[O-])o2)c1 | > 100 | > 100 | > 100 µM (inactive) |
| Cc1ccccc1S(=O)(=O)N1C[C@H]2CON(C)[C@H]2C[C@H]1c1cccc(-c2ccc(C#N)cc2)c1 | > 100 |  |  |
| O=C(Nc1cccc(Cl)c1)c1ccc(S(=O)(=O)NCC2CCCO2)cc1 (stereo not drawn) | 43.4 | 52.5 | > 100 µM (inactive) |
| COc1cccc(-c2ccc(NC(=O)C3CCCN(Cc4cnn(C(C)C)c4)C3)cc2)c1 (stereo not drawn) | > 100 |  |  |
| CC(C)(C)S(=O)(=O)Cc1nc(-c2ccc(Cl)c(Cl)c2)cs1 | > 100 | > 100 | > 100 µM (inactive) |
| CS(=O)(=O)c1ccc(Cl)c(NC(=O)CSc2nncn2-c2ccccc2)c1 | > 100 |  | > 100 µM (inactive) |
| Cc1onc(-c2ccccc2Cl)c1C(=O)N1CCN(Cc2ccc3c(c2)OCO3)CC1 | > 100 | > 100 |  |
| CN(C)CCCN(C(=O)CCOc1ccccc1)c1nc2c(F)cccc2s1 | > 100 |  |  |
| CCc1cccc(NC(=O)CN(C)S(=O)(=O)c2cccc3cccnc23)c1 | > 100 |  | > 100 µM (inactive) |
| COc1ccc(NC(=O)CCS(=O)(=O)c2ccccc2Cl)cc1S(=O)(=O)Nc1ccc(Cl)cc1 | > 100 | > 100 | > 100 µM (inactive) |
| Cc1cccc(Nc2nc(-c3ccc(F)cc3)cs2)n1 | > 100 | > 100 | > 100 µM (inactive) |
| O=C(c1cccs1)c1c[nH]cc1-c1ccccc1 | > 100 | > 100 |  |
| O=S(=O)(NOCc1ccc(Cl)cc1)c1ccc(Cl)cc1 | 52 |  |  |
| CN1C(=O)c2cc(NC(=O)c3cccc(F)c3)ccc2OC[C@H]2O[C@@H](CC(=O)NCC3CCCCC3)CC[C@@H]21 | > 100 |  |  |
| CC(C)=C(c1ccc(Cl)cc1)c1c(N)ncnc1N | > 100 |  |  |
| CCOc1ccc(C(C)=O)cc1CN1C(=O)NC2(CCCCCCC2)C1=O | > 100 |  |  |
| COC(=O)c1cc2c(c3c4cc(F)ccc4n(S(=O)(=O)c4cccc(C)c4)c13)C(=O)N(Cc1ccco1)C2 |  | > 100 |  |

| Compound | AC50 [1] [µM] | AC50 [2, 3] [µM] | AC50 [2] |
| --- | --- | --- | --- |
| O=C(NCc1ccc(-c2nc3ccccc3s2)cc1)c1ccco1 |  | 3 | > 100 µM (inactive) |
| Cc1ccc(S(=O)(=O)N2CC[C@H]3[C@H](CO)Nc4ccc(Br)cc4[C@H]32)cc1 |  | 29.1 | > 100 µM (inactive) |
| S=c1nc(-c2cc(Cl)cc(Cl)c2)[nH][nH]1 |  |  | > 100 µM (inactive) |
| Cc1ccc(N(CC(O)Cn2nc(C)cc2C)S(=O)(=O)c2ccc3ccccc3c2)cc1 (stereo not drawn) |  | 43.1 | > 100 µM (inactive) |
| CCc1ccc(CN2CCCC(CNS(=O)(=O)c3ccc(OC)cc3)C2)cc1 (stereo not drawn) |  | > 100 |  |
| NS(=O)(=O)c1cc(C(=O)OCC(=O)Nc2ccccc2[N+](=O)[O-])ccc1Cl |  | > 100 |  |
| CCOC(=O)C1CCCN(C(=O)c2csc(-c3ccc4c(c3)CCO4)n2)C1 (stereo not drawn) |  |  | > 100 µM (inactive) |
| COc1ccc(-c2ccccc2)cc1NC(=O)c1ccncc1 |  |  | > 100 µM (inactive) |
| Brc1ccc(-n2cnc(-c3ccccc3)c2)cc1 |  |  | > 100 µM (inactive) |
| Cc1cc(SCC(=O)c2cccs2)n2nc(C)c(-c3ccc(Cl)cc3)c2n1 | > 100 |  |  |
| CCOc1ccccc1N1CC(C(=O)Nc2cccc(S(=O)(=O)N3CCCCC3)c2)CC1=O (stereo not drawn) |  | > 100 |  |
| COc1ccc(NC(=O)Nc2cccc3c2O[C@@H](CN(C)S(=O)(=O)c2ccc(Cl)cc2)[C@@H](C)CN([C@@H](C)CO)C3=O)cc1 |  | 47.3 | > 100 µM (inactive) |
| CCc1nnc(NS(=O)(=O)c2ccc(NC(=O)c3cccc(Cl)c3)cc2)s1 |  |  | > 100 µM (inactive) |
| Cc1ccc(CNC(=O)c2ccc(Br)o2)cc1 |  |  | > 100 µM (inactive) |
| c1ccc(-c2nc3c4ccccc4ccn3c2CN2CCOCC2)cc1 |  |  | > 100 µM (inactive) |
| Cc1ccc2oc(C(=O)N(CCO)Cc3ccccc3)c(C)c2c1 |  | 37.1 | > 100 µM (inactive) |
| O=C(O)c1ccc(-c2nc(-c3ccccc3)cs2)cc1 |  |  | > 100 µM (inactive) |
| COc1cccc(S(=O)(=O)N2CCCCN3[C@H](C2)[C@H](c2ccc(C#CC(C)C)cc2)[C@@H]3CO)c1 |  |  | > 100 µM (inactive) |
| O=C(Nc1cccc(S(=O)(=O)N2CCCCC2)c1)c1ccc(Cl)nc1 |  |  | > 100 µM (inactive) |
| Cc1ccc(C(=O)c2coc3cc([N+](=O)[O-])c(O)c([N+](=O)[O-])c23)cc1 |  | 21.5 | > 100 µM (inactive) |
| CN(C)C(=O)C1C2NC(=S)N(c3cccc(Cl)c3)C1(C)Oc1ccc(Cl)cc12 (stereo not drawn) |  | > 100 | > 100 µM (inactive) |
| CCCc1nc2cc(C)c(Br)c(C)n2c1CC1CCCCC1 |  |  | > 100 µM (inactive) |

| Compound | AC50 [1] [µM] | AC50 [2, 3] [µM] | AC50 [2] |
| --- | --- | --- | --- |
| COc1ccc(CNS(=O)(=O)c2ccc3c(c2)NC(=O)C(C)S3)cc1 (stereo not drawn) |  |  | > 100 µM (inactive) |
| CCN(CC)c1nc(Oc2ccc(C(=O)OC)cc2)nc(N2CCOCC2)n1 |  | > 100 |  |
| Cc1cc(C(=O)NCCC2=CCCCC2)ccc1[N+](=O)[O-] |  | > 100 | > 100 µM (inactive) |
| O=C(CCCOc1ccc(Cl)cc1Cl)Nc1ccccc1C(=O)O |  |  | > 100 µM (inactive) |
| COc1ccc(CC(=O)NCc2csc(-c3cccs3)n2)cc1OC |  | > 100 |  |
| O=S(=O)(c1ccccc1)N1C[C@H]2[C@@H](c3ccccc31)[C@@H](CO)N2Cc1ccccc1 |  |  | > 100 µM (inactive) |
| CCSc1nc2ccccc2c(=O)n1Cc1ccc(F)cc1 |  |  | > 100 µM (inactive) |
| CCOC(=O)c1c(CS(=O)(=O)c2ccccc2)n(C)c2cc(Br)c(O)cc12 |  |  | > 100 µM (inactive) |
| COc1cccc(C(=O)NC2CC3CCCC(C2)N3S(=O)(=O)c2ccccc2)c1 (stereo not drawn) |  | 41.4 | > 100 µM (inactive) |
| O=C(Cc1ccc(Br)cc1)Nc1cccc(-c2cn3c(n2)SCC3)c1 |  | > 100 | > 100 µM (inactive) |
| COCCN(C(=O)c1ccccc1F)c1nnc(-c2ccc(OC)cc2)s1 |  | > 100 | > 100 µM (inactive) |
| O=C(Nc1cccc(Cl)c1)N1C[C@@H]2[C@H](c3ccccc31)[C@@H](CO)N2CC1CCCCC1 |  | 50 | > 100 µM (inactive) |
| O=C(CCNC(=O)c1ccco1)Nc1cccc(Br)c1 |  | > 100 | > 100 µM (inactive) |
| Cc1nc(-c2ccc([N+](=O)[O-])cc2)c(-c2ccccc2)o1 |  | > 100 | > 100 µM (inactive) |
| N#Cc1cccc(-c2ccc3c(c2)[C@H]2[C@H](CCN2C(=O)c2ccccc2F)[C@H](CO)N3)c1 |  |  | > 100 µM (inactive) |
| NS(=O)(=O)c1cccc(NC(=O)c2cccc(-c3ccc(O)cc3)c2)c1 |  | 50.2 | > 100 µM (inactive) |
| O=C(C[n+]1cc(-c2ccc(Cl)c(Cl)c2)n2c1CCC2)OCc1ccccc1 |  |  | > 100 µM (inactive) |
| Clc1ccc(-c2cn(-c3ccccc3)c3[n+]2CCS3)cc1 |  |  | > 100 µM (inactive) |
| Cc1onc(-c2ccccc2Cl)c1C(=O)OCC(=O)c1ccccc1 |  | > 100 |  |
| CC(OC(=O)CCc1nc2ccccc2c(=O)[nH]1)C(=O)c1ccc(Br)cc1 (stereo not drawn) |  |  | > 100 µM (inactive) |
| Cc1ccc(CNS(=O)(=O)c2ccc3c(c2)NC(=O)CS3)cc1 |  | 41 | > 100 µM (inactive) |
| O=C1c2cccc3cccc(c23)C(=O)N1CCCn1ccnc1 |  | 51.6 | > 100 µM (inactive) |

| Compound | AC50 [1] [µM] | AC50 [2, 3] [µM] | AC50 [2] |
| --- | --- | --- | --- |
| CCCCNC(=O)C[C@@H]1C[C@@]2(C(=O)OC)CCCCC=C2N(Cc2ccccc2)C1=O |  | > 100 | > 100 µM (inactive) |
| COc1ccc([C@H]2C[C@H](O)C[C@@H](CCn3cc(-c4ccccc4)nn3)O2)cc1 |  | > 100 |  |
| COc1ccc(C(=O)CSc2nc3ccccc3n2CC(=O)c2ccccc2)cc1 |  |  | > 100 µM (inactive) |
| Cc1cc2nc(SCC(=O)O)nc(C)c2cc1C |  | > 100 |  |
| Cc1cccc(CN2C(=O)c3ccccc3Sc3ccc(C(=O)O)cc32)c1 |  | > 100 |  |
| O=c1[nH]c(C2CCCN(S(=O)(=O)c3ccccc3Cl)C2)nc2c1nnn2Cc1ccc2c(c1)OCCO2 (stereo not drawn) |  |  | > 100 µM (inactive) |
| COc1ccc(Cl)cc1C(=O)OCC(=O)c1ccc[nH]1 |  |  | > 100 µM (inactive) |
| O=C(C[C@@H]1CC[C@H]2[C@@H](COC[C@H](O)CN2C(=O)Nc2cc(Cl)cc(Cl)c2)O1)N1CCOCC1 |  |  | > 100 µM (inactive) |
| O=C(NCc1ccccc1)c1ccc(-c2ccccc2F)o1 |  | 28.8 | > 100 µM (inactive) |
| Cc1c(Cc2ccccc2)sc(NC(=O)Cc2ccccc2)c1C(N)=O |  |  | > 100 µM (inactive) |
| C[C@H]1CN([C@@H](C)CO)C(=O)CCCn2nncc2CO[C@@H]1CN(C)Cc1ccccc1C(F)(F)F |  | > 100 |  |
| Cc1ccccc1CSCC(=O)Nc1ccccc1F | > 100 |  |  |
| COc1ccccc1CN1Cc2ccccc2Oc2ccccc2S1(=O)=O |  |  | > 100 µM (inactive) |
| CC(=O)Nc1cccc(OCc2ccc([N+](=O)[O-])cc2)c1 | > 100 |  |  |
| O=C(O)c1cc(-c2cccs2)nn1-c1cccc(Cl)c1 |  |  | > 100 µM (inactive) |
| CN1c2ccc(C#Cc3cccnc3)cc2[C@@H]2[C@@H](CCN2C(=O)c2cccc(F)c2)[C@H]1CO |  |  | > 100 µM (inactive) |
| CCOC(=O)c1sc(NC(=O)CN2CCN(c3ccccc3)CC2)nc1C |  |  | > 100 µM (inactive) |
| Cn1cnc(CCNC(=O)C[C@H]2CC[C@@H]3[C@H](COC[C@H](O)CN3C(=O)Nc3ccc(Cl)cc3)O2)c1 |  |  | > 100 µM (inactive) |
| Cc1nn2c(NCc3ccccn3)cc(C(C)C)nc2c1-c1ccccc1 |  |  | > 100 µM (inactive) |
| CC(=O)N1CCOc2ccc(S(=O)(=O)N(C)c3ccc(C)cc3)cc21 |  |  | > 100 µM (inactive) |
